Measurements: patent US20130280741A1, “METHOD AND SYSTEM OF DETECTING DIOXIN-LIKE COMPOUNDS” (priority 2012, published 2013)

How the values were obtained:
AHR-RL and ARNT-YFP = biological target: T1, AHR-RL and ARNT-YFP (Homo sapiens, UniProt P35869); experiment: BRET assay in AAPA cells; format: cell-based
T1 construct: expressed in transfected cells
Method: (§1) Tetracycline-regulated expression cells (T-REx™ cells) (Invitrogen, Carlsbad, Calif., USA) were transfected with AHR-RL, AIP-HIS and P23-HIS by lipofectamin 2000™ transfection reagent (Invitrogen, Carlsbad, Calif., USA) according to the manufacturer's instructions. Transfected cells were cultured in DMEM growth medium (Gibco, USA) supplemented with 10% fetal bovine serum (FBS), (Gibco, USA), 5 μg/ml Blasticidin, 250 μg/ml Zeocin and 500 μg/ml G418. The optimal cell lines were then transfected with ARNT-YFP or HSP90-YFP and selected with 200 μg/ml Hygromycin to obtain a stable cell line transfected with ARNT-YFP (called as “AAPA cells”) and obtain a stable cell line transfected with HSP90-YFP (called as “AAPH cells”).
For the inducible protein expression and AHR complex formation, the AAPA cells, which were stably co-transfected with AHR-RL, AIP-HIS, P23-HIS and ARNT-YFP, were prepared following the method as described in Example 2 and then were treated with 1 μg/ml tetracycline for 48 hours. Then, the treated cells were washed by phosphate-buffered saline (PBS) twice.
For dioxin detection, different concentrations of 3-methylcholanthrene (3MC) (Boehringer Mannheim, Mannheim, Germany) were mixed with the cells and cultured in a 96-well white polystyrene plate (Corning, USA) at 37° C. for 1 hour. The BRET signals were determined by addition of coelenterazine, a substrate of Renilla Luciferase, to a final concentration of […].

AHR-RL and HSP90-YFP = biological target: T2, AHR-RL and HSP90-YFP (Homo sapiens, UniProt P35869); experiment: BRET assay in AAPH cells; format: cell-based; conditions: different concentrations, 37° C., dose-dependent (FIG. 2C)
T2 construct: expressed in transfected cells
Method: as §1
On the other hand, the AAPH cells, which were stably co-transfected with AHR-RL, AIP-HIS, P23-HIS and HSP-90YFP, were prepared and then mixed with different concentrations of 3MC and cultured in a 96-well white polystyrene plate (Corning, USA) at 37° C.

AHR-RL = biological target: T3, AHR-RL (Homo sapiens, UniProt P35869); experiment: Renilla luciferase signal of AHR-RL in cell-free AAPA whole cell lysate; format: biochemical; conditions: for detection limits / Renilla luciferase signals in the cell-free system: AAPA cell free lysate, 37° C.; for Renilla luciferase signals in the cell-free system: dose-dependent (FIGS. 4 and 5); for lowest concentration at which AHR-RL signal degradation can be detected: cell-free system
T3 construct: expressed in transfected cells; host or cells: sonicated, cleared lysate of tetracycline-induced AAPA cells (T-REx cells, Invitrogen)
Method: 5×10^6 AAPA cells obtained in Example 4 were cultured in a 15 cm dish containing 25 ml DMEM medium supplemented with 10% FBS and 3.5 μg/ml tetracycline for 24 hrs. The cells were harvested and re-suspended in 10 ml cold PBS. The cells were lysed by sonication on ice using sonicator (Branson, Danbury Conn., USA) at amplitude of 10% for 30 cycles of 5 sec on and 15 sec off. The cellular debris was removed by centrifugation at 1,000 g for 10 min. For detection, 90 μl cell free lysates and different concentrations of 3MC were mixed and cultured in 96 well white polystyrene plate (Corning, USA) at room temperature. Renilla luciferase signals were determined by addition of coelenterazine to a final concentration of 0.35 μM. The result for detecting TCDD was shown in FIG. 3 (y=136.97x+2251.9, R^2=0.9794).
In addition, the cell free lysates and different concentrations of 3MC and TCDD were mixed and cultured in 96 well white polystyrene plate (Costar) at 37° C., respectively.

T1 sequence (P35869 11-848): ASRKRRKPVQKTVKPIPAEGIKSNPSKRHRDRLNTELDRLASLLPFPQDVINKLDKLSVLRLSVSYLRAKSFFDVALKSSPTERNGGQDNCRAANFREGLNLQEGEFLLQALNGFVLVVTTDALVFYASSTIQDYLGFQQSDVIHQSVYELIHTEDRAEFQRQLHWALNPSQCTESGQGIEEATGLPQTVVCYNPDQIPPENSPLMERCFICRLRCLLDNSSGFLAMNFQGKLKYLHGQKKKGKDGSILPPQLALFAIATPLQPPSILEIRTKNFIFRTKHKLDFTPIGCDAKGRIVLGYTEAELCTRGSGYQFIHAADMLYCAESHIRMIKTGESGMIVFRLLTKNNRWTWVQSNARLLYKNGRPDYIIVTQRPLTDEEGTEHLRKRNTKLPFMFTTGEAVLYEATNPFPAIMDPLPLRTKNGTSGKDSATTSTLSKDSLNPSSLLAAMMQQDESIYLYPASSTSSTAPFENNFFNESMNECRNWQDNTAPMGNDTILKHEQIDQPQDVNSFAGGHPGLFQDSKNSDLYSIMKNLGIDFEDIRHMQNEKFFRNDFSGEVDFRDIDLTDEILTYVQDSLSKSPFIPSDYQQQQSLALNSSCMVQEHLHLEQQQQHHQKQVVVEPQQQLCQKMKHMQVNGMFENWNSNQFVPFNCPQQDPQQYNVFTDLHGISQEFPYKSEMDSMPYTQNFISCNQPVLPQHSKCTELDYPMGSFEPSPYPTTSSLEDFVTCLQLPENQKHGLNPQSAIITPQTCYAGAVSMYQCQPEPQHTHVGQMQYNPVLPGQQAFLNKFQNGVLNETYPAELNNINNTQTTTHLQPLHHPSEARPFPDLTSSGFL
T1 sequence (P08238 whole entry partner): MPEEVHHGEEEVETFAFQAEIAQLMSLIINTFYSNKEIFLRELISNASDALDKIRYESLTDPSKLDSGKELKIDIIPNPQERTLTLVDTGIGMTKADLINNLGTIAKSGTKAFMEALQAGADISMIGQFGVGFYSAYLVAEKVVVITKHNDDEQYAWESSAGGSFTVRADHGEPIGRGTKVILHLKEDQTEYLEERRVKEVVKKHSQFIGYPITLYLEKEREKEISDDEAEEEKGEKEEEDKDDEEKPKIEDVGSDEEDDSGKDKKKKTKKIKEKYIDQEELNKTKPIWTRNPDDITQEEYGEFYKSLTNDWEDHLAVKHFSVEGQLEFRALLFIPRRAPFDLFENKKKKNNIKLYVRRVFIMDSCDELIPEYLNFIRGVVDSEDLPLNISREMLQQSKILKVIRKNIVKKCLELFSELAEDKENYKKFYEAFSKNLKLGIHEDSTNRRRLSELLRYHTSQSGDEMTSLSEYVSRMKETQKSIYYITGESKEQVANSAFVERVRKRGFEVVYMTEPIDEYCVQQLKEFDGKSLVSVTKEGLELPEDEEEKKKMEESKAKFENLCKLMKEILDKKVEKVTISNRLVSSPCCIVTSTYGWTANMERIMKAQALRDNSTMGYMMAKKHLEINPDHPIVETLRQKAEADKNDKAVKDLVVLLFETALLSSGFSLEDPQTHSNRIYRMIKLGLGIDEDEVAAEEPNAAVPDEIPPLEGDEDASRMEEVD
T1 sequence (O00170 whole entry partner): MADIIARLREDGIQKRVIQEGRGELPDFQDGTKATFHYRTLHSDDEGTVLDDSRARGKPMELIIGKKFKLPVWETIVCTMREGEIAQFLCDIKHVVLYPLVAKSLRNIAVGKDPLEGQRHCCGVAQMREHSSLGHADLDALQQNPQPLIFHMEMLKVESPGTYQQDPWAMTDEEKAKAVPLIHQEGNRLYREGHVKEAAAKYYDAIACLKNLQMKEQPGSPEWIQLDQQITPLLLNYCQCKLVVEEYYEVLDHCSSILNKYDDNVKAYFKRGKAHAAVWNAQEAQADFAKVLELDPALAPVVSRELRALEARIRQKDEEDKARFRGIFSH
T1 sequence (Q15185 whole entry partner): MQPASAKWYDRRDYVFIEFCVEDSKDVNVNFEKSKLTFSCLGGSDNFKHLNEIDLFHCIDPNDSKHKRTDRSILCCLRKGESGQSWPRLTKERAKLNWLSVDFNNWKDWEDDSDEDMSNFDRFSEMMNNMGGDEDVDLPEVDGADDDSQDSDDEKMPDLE
T3 sequence (P35869 11-848): as the sequence (P35869 11-848) above
T3 sequence (P08238 whole entry partner): as the sequence (P08238 whole entry partner) above
T3 sequence (O00170 whole entry partner): as the sequence (O00170 whole entry partner) above
T3 sequence (Q15185 whole entry partner): as the sequence (Q15185 whole entry partner) above
T2 sequence (P35869 11-848): as the sequence (P35869 11-848) above
T2 sequence (P08238 whole entry partner): as the sequence (P08238 whole entry partner) above
T2 sequence (O00170 whole entry partner): as the sequence (O00170 whole entry partner) above
T2 sequence (Q15185 whole entry partner): as the sequence (Q15185 whole entry partner) above

SMILES | BRET signals (AHR-RL and ARNT-YFP; AAPA cells, different concentrations, 37° C. for 1 hour, dose-dependent (FIG. 2B)) | concentration at which BRET signal induction was first observed (AHR-RL and ARNT-YFP) | BRET signals (AHR-RL and HSP90-YFP) | detection limits (AHR-RL) | Renilla luciferase signals in the cell-free system (AHR-RL) | lowest concentration at which AHR-RL signal degradation can be detected (AHR-RL)
Cc1ccc2cc3c(ccc4ccccc43)c3c2c1CC3 [3MC, 3-methylcholanthrene] | increased | 1 pM | suppressed | 10^−16 M | increased | 10 aM
Clc1cc2c(cc1Cl)Oc1cc(Cl)c(Cl)cc1O2 [TCDD, 2,3,7,8-tetrachlorodibenzo-p-dioxin] |  | 1 pM |  | 10^−16 M | increased | 10 aM
